“And” between values parts separate entries of the source, which are not always exact repeats. Equal entries are not always repeated. Toxic doses and inconclusive results are not listed.

In this experiment the test system is L1210 leukemia ip in BDF1 mice, survival T/C. Put plainly: NCI In Vivo Anticancer Drug Screen. Data for tumor model L1210 Leukemia (intraperitoneal) in B6D2F1 (BDF1) mice. As to conditions: endpoint: mean survival time, higher = longer survival. The method in brief: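 Mice bearing the transplanted tumor received compound or vehicle. Survival of the treated group was divided by that of the vehicle-treated control group to give the ratio.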

Where [1] appears, read: dose: 100.0 mg/kg/injection, schedule: Q01DX009 (ip), vehicle: Klucel (hydroxypropylcellulose) (HPC).
[2] abbreviates: dose: 200.0 mg/kg/injection, schedule: Q01DX009 (ip), vehicle: Klucel (hydroxypropylcellulose) (HPC).
[3] abbreviates: dose: 400.0 mg/kg/injection, schedule: Q01DX009 (ip), vehicle: Klucel (hydroxypropylcellulose) (HPC).
Where [4] appears, read: dose: 100.0 mg/kg/injection, schedule: Q04DX003 (ip), vehicle: saline.
Where [5] appears, read: dose: 200.0 mg/kg/injection, schedule: Q04DX003 (ip), vehicle: saline.
Setting [6] is: dose: 100.0 mg/kg/injection, schedule: Q01DX009 (ip), vehicle: other.
Where [7] appears, read: dose: 200.0 mg/kg/injection, schedule: Q01DX009 (ip), vehicle: other.
The mark [8] stands for this setting: dose: 100.0 mg/kg/injection, schedule: Q01DX009 (ip), vehicle: saline with Tween-80.
The mark [9] stands for this setting: dose: 100.0 mg/kg/injection, schedule: Q04DX003 (ip), vehicle: saline with Tween-80.
The mark [10] stands for this setting: dose: 200.0 mg/kg/injection, schedule: Q01DX009 (ip), vehicle: saline with Tween-80.
Where [11] appears, read: dose: 200.0 mg/kg/injection, schedule: Q04DX003 (ip), vehicle: saline with Tween-80.
The mark [12] stands for this setting: dose: 400.0 mg/kg/injection, schedule: Q01DX009 (ip), vehicle: saline with Tween-80.
Where [13] appears, read: dose: 400.0 mg/kg/injection, schedule: Q04DX003 (ip), vehicle: saline with Tween-80.
The mark [14] stands for this setting: dose: 400.0 mg/kg/injection, schedule: Q04DX003 (ip), vehicle: saline.

With `O=C(O)C1CC(c2ccccc2)OC1=O` (configuration not stated), the T/C (dose: 100.0 mg/kg/injection, schedule: Q01DX009 (ip), vehicle: gum acacia) was 101 % of control; the T/C (dose: 100.0 mg/kg/injection, schedule: Q04DX003 (ip), vehicle: gum acacia) is 98 % of control; the T/C (dose: 200.0 mg/kg/injection, schedule: Q01DX009 (ip), vehicle: gum acacia) is 89 % of control; the T/C (dose: 200.0 mg/kg/injection, schedule: Q04DX003 (ip), vehicle: gum acacia) was 93 % of control; the T/C (dose: 400.0 mg/kg/injection, schedule: Q01DX009 (ip), vehicle: gum acacia) is 106 % of control; the T/C (dose: 400.0 mg/kg/injection, schedule: Q04DX003 (ip), vehicle: gum acacia) was 91 % of control.

With `O=C(O)CCc1ccccc1-c1ccccc1`, the T/C (dose: 50.0 mg/kg/injection, schedule: Q04DX002 (ip), vehicle: saline with Tween-80) is 96 % of control; the T/C (dose: 100.0 mg/kg/injection, schedule: Q04DX002 (ip), vehicle: saline with Tween-80) is 101 % of control; the T/C (dose: 200.0 mg/kg/injection, schedule: Q04DX002 (ip), vehicle: saline with Tween-80) was 96 % of control; the T/C (dose: 400.0 mg/kg/injection, schedule: Q04DX002 (ip), vehicle: saline with Tween-80) is 107 % of control.

Take `COC(=O)c1cc(NC(=O)Nc2ccc(F)c([N+](=O)[O-])c2)cc(C(=O)OC)c1`: the T/C runs as follows: under setting [1], 95 % of control; under setting [2], 93 % of control; under setting [3], 96 % of control.

Take `COc1cc2c(c(OC)c1OC)-c1cc3c(cc1[C@@H](OC(C)=O)[C@@H]1COC(=O)[C@H]1C2)OCO3`: the T/C was 89 % of control (dose: 6.22 mg/kg/injection, schedule: Q01DX009 (ip), vehicle: saline + alcohol); 94 % of control (dose: 9.33 mg/kg/injection, schedule: Q01DX009 (ip), vehicle: saline + alcohol); 107 % of control (dose: 14.0 mg/kg/injection, schedule: Q01DX009 (ip), vehicle: saline + alcohol); 105 % of control (dose: 21.0 mg/kg/injection, schedule: Q01DX009 (ip), vehicle: saline + alcohol).

As for `CN(Cc1cnc2nc(N)nc(N)c2n1)c1ccc(C(=O)NC(CCC(=O)O)C(=O)O)cc1C(F)(F)F` (configuration not stated), the T/C by setting is: (dose: 5.0 mg/kg/injection, schedule: Q01DX009 (ip), vehicle: sodium bicarbonate) 158 % of control; (dose: 10.0 mg/kg/injection, schedule: Q01DX009 (ip), vehicle: sodium bicarbonate) 168 % of control.

As for `CNc1c(C)n(C)n(-c2ccccc2)c1=O.[Cl][Pd]([Cl])([Cl])[Cl]`, the T/C by setting is: (dose: 50.0 mg/kg/injection, schedule: Q04DX003 (ip), vehicle: saline) 106 % of control; under setting [4], 111 % of control; under setting [5], 100 % of control.

For `CC(C)(CCCOc1ccccc1)NC(=O)c1ccccc1`, the T/C was 100 % of control (dose: 50.0 mg/kg/injection, schedule: Q01DX001 (ip), vehicle: saline); 100 % of control (dose: 100.0 mg/kg/injection, schedule: Q01DX001 (ip), vehicle: saline); 103 % of control (dose: 200.0 mg/kg/injection, schedule: Q01DX001 (ip), vehicle: saline); 102 % of control (dose: 400.0 mg/kg/injection, schedule: Q01DX001 (ip), vehicle: saline).

On to `O=C(Nc1ccc(Cl)c([N+](=O)[O-])c1)Oc1ccc2ccccc2c1`, for which the T/C reads like this: under setting [6], 92 % of control; under setting [7], 97 % of control; (dose: 400.0 mg/kg/injection, schedule: Q01DX009 (ip), vehicle: other) 107 % of control.

For the compound `OCc1cc2ccccc2[nH]1`, the T/C reads like this: under setting [8], 100 % of control; under setting [9], 100 % of control; under setting [10], 100 % of control; under setting [11], 96 % of control; under setting [12], 101 % of control; under setting [13], 100 % of control.

Regarding `Cc1ccc(S(=O)(=O)N(C)CCC#N)cc1`, the T/C is 97 % of control under setting [1]; 100 % of control (dose: 100.0 mg/kg/injection, schedule: Q04DX003 (ip), vehicle: Klucel (hydroxypropylcellulose) (HPC)); 96 % of control under setting [2]; 98 % of control (dose: 200.0 mg/kg/injection, schedule: Q04DX003 (ip), vehicle: Klucel (hydroxypropylcellulose) (HPC)); 96 % of control under setting [3]; 96 % of control (dose: 400.0 mg/kg/injection, schedule: Q04DX003 (ip), vehicle: Klucel (hydroxypropylcellulose) (HPC)).

Consider `CCO/C(C)=C(/C(C)=O)C(=O)NC1CCCCC1`, for which the T/C reads like this: under setting [8], 100 % of control; under setting [9], 101 % of control; under setting [10], 100 % of control; under setting [11], 95 % of control; under setting [12], 102 % of control; under setting [13], 98 % of control.

On to `CCC(C)(C)c1ccc(Oc2ccccc2)c(N)c1`, for which the T/C reads like this: under setting [6], 88 % of control; under setting [9], 104 % of control; under setting [7], 100 % of control; under setting [11], 100 % of control; under setting [13], 98 % of control.

`CNNC(=O)c1ccccc1`: the T/C by setting is: (dose: 6.25 mg/kg/injection, schedule: Q04DX002 (ip), vehicle: saline) 119 % of control; (dose: 12.5 mg/kg/injection, schedule: Q04DX002 (ip), vehicle: saline) 97 % of control; (dose: 25.0 mg/kg/injection, schedule: Q04DX002 (ip), vehicle: saline) 97 % of control; (dose: 50.0 mg/kg/injection, schedule: Q04DX002 (ip), vehicle: saline) 94 % of control and 97 % of control; (dose: 100.0 mg/kg/injection, schedule: Q04DX002 (ip), vehicle: saline) 98 % of control.

For `N/C(=N\O)c1ccc2ccc3cccnc3c2n1`, the T/C was 102 % of control under setting [9] and 87 % of control under setting [11].

In the case of `CCCCCCC(O)C/C=C/CCCCCCCC(=O)O` (configuration not stated), the T/C is, setting by setting: (dose: 100.0 mg/kg/injection, schedule: Q04DX002 (ip), vehicle: Klucel (hydroxypropylcellulose) (HPC)) 96 % of control; (dose: 200.0 mg/kg/injection, schedule: Q04DX002 (ip), vehicle: Klucel (hydroxypropylcellulose) (HPC)) 93 % of control; (dose: 400.0 mg/kg/injection, schedule: Q04DX002 (ip), vehicle: Klucel (hydroxypropylcellulose) (HPC)) 86 % of control.

Regarding `CC(C)=CCNc1ncnc2c1c(C#N)cn2C1OC(CO)C(O)C1O` (configuration not stated), the T/C runs as follows: (dose: 0.78 mg/kg/injection, schedule: Q01DX009 (ip), vehicle: saline) 95 % of control; (dose: 1.56 mg/kg/injection, schedule: Q01DX005 (ip), vehicle: saline) 106 % of control; (dose: 1.56 mg/kg/injection, schedule: Q01DX009 (ip), vehicle: saline) 95 % of control; (dose: 3.12 mg/kg/injection, schedule: Q01DX009 (ip), vehicle: saline) 97 % of control.

As for `CNC(=O)Nc1ccncc1`, the T/C reads like this: under setting [9], 96 % of control; under setting [11], 102 % of control; under setting [13], 91 % of control.

With `CC12CCC(=O)C=C1CCC1C2CCC2(C)C1CCC2[N+](C)(C)C` (configuration not stated), the T/C (dose: 75.0 mg/kg/injection, schedule: Q01DX001 (ip), vehicle: other) is 108 % of control.

For the compound `Nc1cccc(CC(N)C(=O)O)c1` (configuration not stated), the T/C runs as follows: under setting [4], 100 % of control; under setting [5], 93 % of control; under setting [14], 100 % of control.

Regarding `CCC(Cc1ccccc1Br)C1=NC(C)(C)CO1` (configuration not stated), the T/C reads like this: (dose: 100.0 mg/kg/injection, schedule: Q01DX009 (ip), vehicle: saline) 90 % of control; under setting [4], 105 % of control; (dose: 200.0 mg/kg/injection, schedule: Q01DX009 (ip), vehicle: saline) 90 % of control; under setting [5], 107 % of control; (dose: 400.0 mg/kg/injection, schedule: Q01DX009 (ip), vehicle: saline) 106 % of control; under setting [14], 100 % of control.

Consider `CCCn1c2ccccc2c2ccccc21`, for which the T/C was 96 % of control under setting [1], 97 % of control under setting [2] and 94 % of control under setting [3].

These data come from PubChem BioAssay AID248 (DTP/NCI, 2004).
